Reference: US6391857B1, “Methods and compositions for endothelial binding” (Stanford University, priority 1990, dated 2002)

Experiments:
mouse LECAM-1 = target: T1, mouse LECAM-1 (Mus musculus, UniProt P18337); assay: Cell binding assay: mouse lymphocytes on coated synthetic glycoconjugates; type: cell-based; conditions: mesenteric lymph node lymphocytes, 3×10^6 cells in 0.15 ml
T1 construct: Mouse lymphocytes isolated from mesenteric lymph nodes were also tested; endogenous in cells; host or cells: primary mouse lymphocytes from mesenteric lymph nodes
T1 sequence (P18337 39-372): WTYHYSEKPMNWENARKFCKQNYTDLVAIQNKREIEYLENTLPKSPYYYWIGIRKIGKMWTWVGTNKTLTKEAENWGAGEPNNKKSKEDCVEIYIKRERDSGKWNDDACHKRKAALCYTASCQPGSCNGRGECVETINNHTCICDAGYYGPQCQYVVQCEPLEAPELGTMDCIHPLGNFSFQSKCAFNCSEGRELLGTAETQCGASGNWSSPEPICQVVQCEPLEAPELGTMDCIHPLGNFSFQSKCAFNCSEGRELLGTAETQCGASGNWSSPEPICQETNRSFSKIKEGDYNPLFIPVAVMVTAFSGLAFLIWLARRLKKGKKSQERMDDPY
Description: Cell binding assays. One hundred microliter samples of each synthetic glycoconjugate in phosphate buffered saline (PBS), pH7.2, were absorbed onto glass wells of 8-chamber slides (LabTek) for two hours at RT. After blocking with 5% NBS, 10 mM HEPES, Dulbecco's Modified Eagles Medium (DMEM), pH7.0 (CM), L1-2^LECAM-1, L1-2^vector or L1-2^ELAM-1 cells were applied to each well (1.5×10^6 cells in 0.15 ml CM). Mouse lymphocytes isolated from mesenteric lymph nodes were also tested at 3×10^6 cells in 0.15 ml. In some cases, cells were preincubated with monoclonal antibody MEL-14 (Gallatin et al., 1983, supra) at 150 μg/ml/10^7 cells and washed prior to testing. After a 25 minute incubation at RT on a rotating shaker at 50 rpm, the tops of the wells were removed and the slides washed 3× in DMEM and then fixed by incubation in 1.5% glutaraldehyde (Kodak) in DMEM. Three to six 100× fields were counted for each data point and the average and standard error are reported. Data reported are from representative experiments which were performed 2-5 times with similar results.

ELAM-1 = target: T2, ELAM-1 (Homo sapiens, UniProt P16581); assay: Cell binding assay: L1-2^ELAM-1 cells on glass slides coated with synthetic glycoconjugates; type: cell-based; conditions: 25 min RT, 50 rpm
T2 construct: expressed in transfected cells; host or cells: murine pre-B cell line L1-2, vector pMRB101 derivative (pMRB107), hCMV promoter
T2 sequence (P16581 22-610): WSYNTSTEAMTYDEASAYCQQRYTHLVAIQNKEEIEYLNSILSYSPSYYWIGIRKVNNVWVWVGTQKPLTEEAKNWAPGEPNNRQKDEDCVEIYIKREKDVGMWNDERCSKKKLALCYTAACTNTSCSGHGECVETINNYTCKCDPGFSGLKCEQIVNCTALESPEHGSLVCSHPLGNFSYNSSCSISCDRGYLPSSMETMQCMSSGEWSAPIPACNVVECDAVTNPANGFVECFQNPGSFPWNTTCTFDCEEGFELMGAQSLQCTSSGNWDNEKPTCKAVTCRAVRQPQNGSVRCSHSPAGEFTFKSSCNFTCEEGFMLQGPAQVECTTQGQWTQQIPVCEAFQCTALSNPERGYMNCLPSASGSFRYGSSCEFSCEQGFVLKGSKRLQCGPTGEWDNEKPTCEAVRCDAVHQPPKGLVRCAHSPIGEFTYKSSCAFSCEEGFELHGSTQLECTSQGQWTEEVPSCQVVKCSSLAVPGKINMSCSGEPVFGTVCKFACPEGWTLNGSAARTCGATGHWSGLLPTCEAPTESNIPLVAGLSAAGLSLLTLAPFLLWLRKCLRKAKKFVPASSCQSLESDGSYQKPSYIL
Description: L1-2/pMRB107 cells (L1-2^ELAM-1) were prepared by transfecting the ELAM-1 gene into the murine pre-B cell line L1-2 (Gallatin et al. (1983) Nature 35 304:30-34). A cDNA clone encoding ELAM-1 was obtained from a CDNA library made from activated human umbilical vein endothelial cell cultures by polymerase chain reaction amplification. The ELAM-1 gene was inserted downstream of the hCMV promoter in pMRB101 [a derivative of EE6 which contains the E. coli gpt gene (Mulligan and Berg (1981) Proc. Nat'l. Acad. Sci. USA 78:2072; Stephens and Corbett (1989) N.A.R. 17:7110)]. DNA was introduced into L1-2 cells by electroporation and the cells selected for resistance to mycophenolic acid. A population of cells staining brightly for ELAM-1 were selected by FACS and cloned by limiting dilution. These cells are ELAM-1^hi LFA-1^mod CD45^hi CD44^neg LECAM-1^neg, differing from the parent cell line or control vector transfectants only in their expression of ELAM-1. L1-2/pMRB101 (L1-2^vector) cells are a similarly transformed derivative of L1-2 transfected with pMRB101 and lacking ELAM-1 expression.
One hundred microliter samples of each synthetic glycoconjugate in phosphate buffered saline (PBS), pH 7.2, were absorbed onto glass wells of 8-chamber slides (LabTek) for two hours at RT. For some experiments glass slides were pre-coated with rabbit anti-human serum albumin (Sigma) at 200 μg/ml overnight at 4° C. and washed with PBS prior to the addition of the glycoconjugate. After blocking with 5% NBS/ 10 mM HEPES/Dulbecco's Modified Eagles Medium (DMEM), pH 7.0 (CM), L1-2^ELAM-1 or L1-2^vector cells were applied to each well (1.5×10^6/0.15 ml in CM). After a 25 minute incubation at RT on a rotating shaker at 50 rpm, the tops of the wells were removed and the slides washed 3× in DMEM and then fixed by incubation in 1.5% glutaral-dehyde (Kodak)/DMEM. Three to six 100× fields were counted for each data point and the average and standard error are reported. Data reported are from representative experiments which were performed 2-5 times with similar results.

antibody 1H10 = assay: Direct binding ELISA of antibody 1H10 to solid-phase neoglycoproteins; parameters: species or system mouse; conditions: 100 ng neoglycoprotein per well, antibody 10 μg/ml
Description: Synthetic glycoproteins were coated onto microtiter plates by filling each well with 100 ng of the neoglycoprotein in 100 μl of 0.15 M sodium chloride, 0.01 M sodium phosphate, 0.1% sodium azide, pH 7.4, (PBS-azide) overnight at 4° C. Standard enzyme-linked immunoassays (ELISA) were then performed on the solid phase carbohydrate structures using the appropriate antibody diluted to 10 μg/ml.

binding of mouse lymphocytes to coated neoglycoconjugate (mouse LECAM-1) | binding of L1-2^ELAM-1 cells to coated glycoconjugate (ELAM-1) | direct binding of antibody 1H10 to neoglycoprotein (antibody 1H10) | Substance
not | did not bind | weakly crossreacts | Neu5Acα2-3Galβ1-3GlcNAcβ1-3Galβ1-4(Glc) [LSTa]
 | did not bind |  | Neu5Acα2-6Galβ1-4GlcNAcβ1-3Galβ1-4(Glc) [LSTc]
not | did not bind |  | NeuNAc α2-3Gal βl-4 (Glc) [3′SL]
not | did not bind |  | NeuNAc α2-6Gal βl-4 (Glc) [6′SL]
